Source: ChEMBL document CHEMBL1800071, “Switching reversibility to irreversibility in glycogen synthase kinase 3 inhibitors: clues for specific design of new compounds” (J Med Chem, 2011)
The source made the active and inactive calls. The calls are words filed in the database; no cut-off is given here.

How the values were obtained:
[1] = molecular target: D(2) dopamine receptor (Homo sapiens) (UniProt P14416); experiment: Displacement of [3H]spiperone form human recombinant D2 receptor expressed in CHO cells at 10 uM; assay type: cell-based
[2] = molecular target: Proto-oncogene tyrosine-protein kinase Src (Homo sapiens) (UniProt P12931); experiment: Inhibition of Src kinase at 10 uM
[3] = organism: Rattus norvegicus; experiment: Displacement of [3H]cytisine from alpha-BGTX-insensitive neuronal nicotinic receptor in rat cerebral cortex at 10 uM; assay type: tissue-based
[4] = molecular target: Muscarinic acetylcholine receptor (Rattus norvegicus) (UniProt P08482+P08483+P08485+P08911+P10980); experiment: Displacement of [3H]-QNB from muscarinic receptor in rat cerebral cortex at 10 uM; assay type: tissue-based
[5] = molecular target: Dual specificity mitogen-activated protein kinase kinase 1 (Oryctolagus cuniculus) (UniProt P29678); experiment: Inhibition of rabbit recombinant MEK1 expressed in Escherichia coli using inactivated MAP kinase as substrate and [gamma-33P]ATP at 10 uM by scintillation counting
[6] = test system: Calcium/calmodulin-dependent protein kinase type II (Rattus norvegicus); experiment: Inhibition of rat brain CAM kinase 2 using autocamtide as substrate and [gamma-33P] at 10 uM by scintillation counting
[7] = organism: Rattus norvegicus; experiment: Displacement of [3H]-AMPA from AMPA glutaminergic receptor in rat cerebral cortex at 10 uM; assay type: tissue-based
[8] = molecular target: D(3) dopamine receptor (Homo sapiens) (UniProt P35462); experiment: Displacement of [3H]spiperone form human recombinant D3 receptor expressed in CHO cells at 10 uM; assay type: cell-based
[9] = molecular target: Insulin receptor (Homo sapiens) (UniProt P06213); experiment: Inhibition of human recombinant IRK using poly GT as substrate and [gamma-33P]ATP at 10 uM by scintillation counting
[10] = molecular target: Mitogen-activated protein kinase 1 (Rattus norvegicus) (UniProt P63086); experiment: Inhibition of rat recombinant ERK42 expressed in Escherichia coli using MBP as substrate and [gamma-33P]ATP at 10 uM by scintillation counting
[11] = organism: Rattus norvegicus; experiment: Displacement of [3H]serotonine from 5-HT receptor in rat cerebral cortex at 10 uM; assay type: tissue-based
[12] = Inhibition of protein kinase A at 100 uM
[13] = organism: Bos taurus; experiment: Inhibition of bovine thymus protein kinase p56 using poly GT as substrate and [gamma-33P]ATP at 10 uM by scintillation counting
[14] = molecular target: Epidermal growth factor receptor (Homo sapiens) (UniProt P00533); experiment: Inhibition of EGFR kinase in human A431 cells using poly GAT as substrate and [gamma-33P]ATP at 10 uM by scintillation counting; assay type: cell-based; details: A-431
[15] = molecular target: Adrenergic receptor alpha-2 (Rattus norvegicus) (UniProt P22086+P19328+P22909); experiment: Displacement of [3H]-RX821002 from adrenergic A2 receptor in rat cerebral cortex at 10 uM; assay type: tissue-based
[16] = molecular target: Tyrosine-protein kinase ABL1 (Mus musculus) (UniProt P00520); experiment: Inhibition of mouse recombinant Abl expressed in Escherichia coli assessed as phosphopoly Gt formation using poly Gt as substrate at 10 uM by fluorescence polarization method
[17] = organism: Rattus norvegicus; experiment: Displacement of [125I]-alpha-bungarotoxin from alpha-BGTX-sensitive neuronal nicotinic receptor in rat cerebral cortex at 10 uM; assay type: tissue-based
[18] = organism: Rattus norvegicus; experiment: Displacement of [3H]-CGP39653 from NMDA glutaminergic receptor in rat cerebral cortex at 10 uM; assay type: tissue-based
[19] = molecular target: T1, Glycogen synthase kinase-3 beta (Homo sapiens, UniProt P49841); experiment: Inhibition of human recombinant GSK3-beta using prephosphorylated polypeptide substrate after 30 mins by Glow-type luminescence assay in presence of 1 uM ATP
Target sequence in this assay (P49841 whole entry): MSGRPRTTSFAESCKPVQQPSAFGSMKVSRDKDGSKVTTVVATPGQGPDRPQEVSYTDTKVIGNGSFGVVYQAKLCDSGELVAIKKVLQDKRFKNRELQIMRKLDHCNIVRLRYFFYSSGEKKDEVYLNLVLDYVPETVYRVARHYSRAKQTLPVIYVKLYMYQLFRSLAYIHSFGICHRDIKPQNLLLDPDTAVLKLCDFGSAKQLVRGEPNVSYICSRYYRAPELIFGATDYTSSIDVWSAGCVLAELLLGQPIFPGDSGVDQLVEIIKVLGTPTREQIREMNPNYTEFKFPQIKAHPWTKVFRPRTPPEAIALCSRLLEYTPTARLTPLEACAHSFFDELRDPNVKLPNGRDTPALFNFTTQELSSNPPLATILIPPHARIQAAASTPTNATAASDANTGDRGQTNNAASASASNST

[20] = molecular target: T1, Glycogen synthase kinase-3 beta; experiment: Irreversible inhibition of human recombinant GSK3-beta using prephosphorylated polypeptide substrate preincubated with enzyme for 5 to 10 mins measured after 30 mins by Glow-type luminescence assay in presence of 1 uM ATP
Target sequence in this assay (P49841 whole entry, looked up): as the sequence (P49841 whole entry) above

[21] = molecular target: T1, Glycogen synthase kinase-3 beta; experiment: Inhibition of GSK3-beta using GS1 as substrate and [gamma-32P]ATP after 20 mins by radiometric assay
Target sequence in this assay (P49841 whole entry): as above

[22] = molecular target: T1, Glycogen synthase kinase-3 beta; experiment: Reversible inhibition of human recombinant GSK3-beta using prephosphorylated polypeptide substrate preincubated with enzyme for 5 to 10 mins measured after 30 mins by Glow-type luminescence assay in presence of 1 uM ATP
Target sequence in this assay (P49841 whole entry, looked up): as the sequence (P49841 whole entry) above

[23] = molecular target: T1, Glycogen synthase kinase-3 beta; experiment: Covalent binding affinity to human recombinant GSK3-beta by MALDI-TOF analysis
Target sequence in this assay (P49841 whole entry, looked up): as the sequence (P49841 whole entry) above

[24] = Inhibition of GSK3 in granule cerebellar neurons assessed as […] of tau phosphorylation at 25 uM after 16 hrs by Western blot analysis
[25] = Inhibition of GSK3 in granule cerebellar neurons assessed as decrease of tau phosphorylation at Ser396 at 25 uM after 16 hrs by Western blot analysis

Epidermal growth factor receptor (Homo sapiens), sequence (P00533 whole entry): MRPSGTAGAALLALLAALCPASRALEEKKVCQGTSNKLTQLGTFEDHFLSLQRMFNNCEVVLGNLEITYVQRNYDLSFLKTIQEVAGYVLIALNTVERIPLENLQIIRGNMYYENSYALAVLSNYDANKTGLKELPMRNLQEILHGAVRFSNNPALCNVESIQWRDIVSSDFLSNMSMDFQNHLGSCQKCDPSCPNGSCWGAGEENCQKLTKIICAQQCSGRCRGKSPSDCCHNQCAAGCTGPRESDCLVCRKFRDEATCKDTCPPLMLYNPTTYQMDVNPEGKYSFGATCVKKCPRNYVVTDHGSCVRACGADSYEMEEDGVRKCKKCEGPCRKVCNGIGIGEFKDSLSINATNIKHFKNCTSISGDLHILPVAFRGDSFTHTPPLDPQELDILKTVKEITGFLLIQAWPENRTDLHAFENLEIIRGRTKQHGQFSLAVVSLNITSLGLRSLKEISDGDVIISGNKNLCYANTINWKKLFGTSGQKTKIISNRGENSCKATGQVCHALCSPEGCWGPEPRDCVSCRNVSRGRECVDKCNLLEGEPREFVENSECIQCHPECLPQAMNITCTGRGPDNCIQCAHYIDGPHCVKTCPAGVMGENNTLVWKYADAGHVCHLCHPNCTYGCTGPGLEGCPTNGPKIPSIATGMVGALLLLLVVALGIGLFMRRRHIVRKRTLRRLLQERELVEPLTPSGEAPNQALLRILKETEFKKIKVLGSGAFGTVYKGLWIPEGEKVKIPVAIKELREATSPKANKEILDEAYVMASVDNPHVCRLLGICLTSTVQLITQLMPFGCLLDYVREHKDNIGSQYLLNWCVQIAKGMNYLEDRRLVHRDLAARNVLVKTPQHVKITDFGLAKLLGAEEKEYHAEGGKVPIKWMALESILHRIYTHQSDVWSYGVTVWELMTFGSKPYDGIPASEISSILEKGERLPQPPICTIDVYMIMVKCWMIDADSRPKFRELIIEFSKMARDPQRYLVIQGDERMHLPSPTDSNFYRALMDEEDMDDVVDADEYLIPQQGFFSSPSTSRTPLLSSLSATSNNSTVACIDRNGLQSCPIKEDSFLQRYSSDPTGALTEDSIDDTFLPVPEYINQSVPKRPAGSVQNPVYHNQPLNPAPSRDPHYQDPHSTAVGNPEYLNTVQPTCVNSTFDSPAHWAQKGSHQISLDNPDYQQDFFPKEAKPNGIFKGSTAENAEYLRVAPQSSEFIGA
Proto-oncogene tyrosine-protein kinase Src (Homo sapiens), sequence (P12931 2-536 limits assumed): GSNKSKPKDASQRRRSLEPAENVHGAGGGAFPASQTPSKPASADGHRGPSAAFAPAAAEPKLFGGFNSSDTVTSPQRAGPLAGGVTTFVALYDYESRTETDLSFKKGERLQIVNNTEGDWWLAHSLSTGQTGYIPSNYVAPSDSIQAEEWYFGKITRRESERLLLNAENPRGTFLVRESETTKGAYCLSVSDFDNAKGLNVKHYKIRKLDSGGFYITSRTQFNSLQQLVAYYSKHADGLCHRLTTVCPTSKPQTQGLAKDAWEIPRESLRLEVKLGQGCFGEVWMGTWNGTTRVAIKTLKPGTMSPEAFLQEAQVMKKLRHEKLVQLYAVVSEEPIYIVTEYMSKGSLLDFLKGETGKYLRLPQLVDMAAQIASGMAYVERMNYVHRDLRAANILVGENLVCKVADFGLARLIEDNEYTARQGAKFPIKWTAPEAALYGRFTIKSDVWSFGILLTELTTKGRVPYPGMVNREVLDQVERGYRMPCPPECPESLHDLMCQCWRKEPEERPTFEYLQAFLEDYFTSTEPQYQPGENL
Insulin receptor (Homo sapiens), sequence (P06213 28-758 limits assumed): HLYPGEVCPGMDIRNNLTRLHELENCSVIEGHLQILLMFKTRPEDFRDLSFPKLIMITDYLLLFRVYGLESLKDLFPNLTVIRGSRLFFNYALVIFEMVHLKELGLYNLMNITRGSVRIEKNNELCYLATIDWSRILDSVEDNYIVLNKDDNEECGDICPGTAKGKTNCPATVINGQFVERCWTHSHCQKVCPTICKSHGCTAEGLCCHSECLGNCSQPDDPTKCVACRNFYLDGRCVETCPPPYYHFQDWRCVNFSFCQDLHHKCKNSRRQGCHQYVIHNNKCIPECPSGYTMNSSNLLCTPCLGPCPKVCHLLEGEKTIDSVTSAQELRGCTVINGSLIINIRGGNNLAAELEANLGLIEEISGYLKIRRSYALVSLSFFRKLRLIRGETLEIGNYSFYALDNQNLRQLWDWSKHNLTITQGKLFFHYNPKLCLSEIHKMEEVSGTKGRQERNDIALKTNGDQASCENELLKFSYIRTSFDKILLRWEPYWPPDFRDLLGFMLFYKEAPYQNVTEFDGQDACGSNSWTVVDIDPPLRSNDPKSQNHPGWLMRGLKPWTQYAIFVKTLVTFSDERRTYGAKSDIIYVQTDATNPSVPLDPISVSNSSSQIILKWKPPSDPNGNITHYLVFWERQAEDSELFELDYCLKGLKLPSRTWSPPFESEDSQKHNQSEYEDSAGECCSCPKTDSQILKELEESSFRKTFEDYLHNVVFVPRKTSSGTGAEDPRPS
Insulin receptor (Homo sapiens), sequence (P06213 763-1382 limits assumed): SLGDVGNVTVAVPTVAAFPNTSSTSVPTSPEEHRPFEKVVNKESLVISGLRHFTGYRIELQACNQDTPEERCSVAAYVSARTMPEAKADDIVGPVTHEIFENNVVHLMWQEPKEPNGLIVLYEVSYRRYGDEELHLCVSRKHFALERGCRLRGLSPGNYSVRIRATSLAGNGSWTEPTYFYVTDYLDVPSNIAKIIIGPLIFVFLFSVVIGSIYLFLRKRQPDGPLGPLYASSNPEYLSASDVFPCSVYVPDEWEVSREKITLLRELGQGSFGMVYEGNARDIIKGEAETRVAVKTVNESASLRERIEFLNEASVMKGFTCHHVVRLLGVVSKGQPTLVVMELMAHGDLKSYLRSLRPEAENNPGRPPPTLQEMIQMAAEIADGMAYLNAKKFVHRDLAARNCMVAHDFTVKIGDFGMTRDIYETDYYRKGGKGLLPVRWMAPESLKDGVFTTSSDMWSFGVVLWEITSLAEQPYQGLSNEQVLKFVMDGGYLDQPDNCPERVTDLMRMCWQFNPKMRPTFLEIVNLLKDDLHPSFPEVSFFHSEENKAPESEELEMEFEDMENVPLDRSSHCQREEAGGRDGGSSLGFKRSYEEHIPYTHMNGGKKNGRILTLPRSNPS
Dual specificity mitogen-activated protein kinase kinase 1 (Oryctolagus cuniculus), sequence (P29678 whole entry): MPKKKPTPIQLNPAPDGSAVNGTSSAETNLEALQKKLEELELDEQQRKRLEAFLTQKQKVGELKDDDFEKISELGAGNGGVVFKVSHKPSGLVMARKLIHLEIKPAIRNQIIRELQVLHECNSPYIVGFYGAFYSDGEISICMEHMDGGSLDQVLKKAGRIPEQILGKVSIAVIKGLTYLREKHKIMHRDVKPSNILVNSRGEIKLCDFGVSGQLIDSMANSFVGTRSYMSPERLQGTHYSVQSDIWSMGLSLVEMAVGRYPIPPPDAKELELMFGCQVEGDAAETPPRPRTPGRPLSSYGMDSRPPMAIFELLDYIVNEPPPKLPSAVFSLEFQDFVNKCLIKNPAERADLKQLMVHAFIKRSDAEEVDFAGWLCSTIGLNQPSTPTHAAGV
Mitogen-activated protein kinase 1 (Rattus norvegicus), sequence (P63086 whole entry): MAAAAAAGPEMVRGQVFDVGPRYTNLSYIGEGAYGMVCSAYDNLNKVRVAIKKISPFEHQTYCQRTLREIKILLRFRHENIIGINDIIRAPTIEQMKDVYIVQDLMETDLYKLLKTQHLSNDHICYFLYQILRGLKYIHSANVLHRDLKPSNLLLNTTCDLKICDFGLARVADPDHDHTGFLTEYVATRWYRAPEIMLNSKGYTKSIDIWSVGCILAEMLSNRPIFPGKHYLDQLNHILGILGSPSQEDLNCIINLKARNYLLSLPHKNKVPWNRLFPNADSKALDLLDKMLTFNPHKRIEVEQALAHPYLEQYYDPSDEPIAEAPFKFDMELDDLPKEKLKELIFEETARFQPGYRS
D(3) dopamine receptor (Homo sapiens), sequence (P35462 whole entry): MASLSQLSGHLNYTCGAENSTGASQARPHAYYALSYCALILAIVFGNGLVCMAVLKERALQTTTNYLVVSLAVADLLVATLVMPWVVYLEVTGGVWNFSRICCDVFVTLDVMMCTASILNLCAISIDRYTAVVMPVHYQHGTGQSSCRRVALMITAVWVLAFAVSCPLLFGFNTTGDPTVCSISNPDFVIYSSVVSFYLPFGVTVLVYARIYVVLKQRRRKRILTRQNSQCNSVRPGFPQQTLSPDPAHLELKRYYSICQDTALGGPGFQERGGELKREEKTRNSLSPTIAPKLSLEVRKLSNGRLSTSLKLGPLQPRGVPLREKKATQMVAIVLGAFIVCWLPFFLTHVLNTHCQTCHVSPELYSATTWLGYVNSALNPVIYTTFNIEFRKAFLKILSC

## O=C(CCl)c1ccc(Cl)cc1
[1]
  inhibition: < 10%
[2]
  inhibition: 19%
[3]
  inhibition: < 10%
[4]
  inhibition: < 10%
[5]
  inhibition: < 10%
[6]
  inhibition: 16%
[7]
  inhibition: < 10%
[8]
  inhibition: < 10%
[9]
  inhibition: < 10%
[10]
  inhibition: < 10%
[11]
  inhibition: < 10%
[12]
  inhibition: inactive
[13]
  inhibition: < 10%
[14]
  inhibition: < 10%
[15]
  inhibition: < 10%
[16]
  inhibition: < 10%
[17]
  inhibition: < 10%
[18]
  inhibition: 15%

## CC(=O)n1cnc2c(N)ncnc21
[19]
  IC50: > 50 µM

## COc1ccc(-n2cnc3cc(C(=O)CBr)ccc32)cc1
[20]
  inhibition: Active
[19]
  IC50: 0.58 µM

## O=C(CN1C(=O)c2ccccc2C1=O)c1ccc(Br)cc1
[21]
  IC50: 100 µM

## [O-][S+](CCl)c1ccc(Br)cc1 (stereo unspecified)
[21]
  IC50: > 100 µM

## O=C(c1ccc(I)cc1)C(Br)Br
[21]
  IC50: 2 µM

## CC(=O)C1=C(c2c[nH]c3ccccc23)C(=O)NC1=O
[19]
  IC50: 4.47 µM
[22]
  inhibition: Active

## Nc1ncnc2c1ncn2C(=O)CCl
[19]
  IC50: 13.4 µM

## O=C(CSc1ccccc1)c1ccc(Br)cc1
[21]
  IC50: > 100 µM

## O=C(CBr)C1=C(c2c[nH]c3ccccc23)C(=O)NC1=O
[20]
  inhibition: Active
[19]
  IC50: 0.047 µM

## O=C(c1ccccn1)C(Br)Br
[21]
  IC50: 2.5 µM

## COc1ccc(-n2cnc3cc(C(C)=O)ccc32)cc1
[19]
  IC50: > 10 µM

## O=C(CBr)c1ccc(N2CCOCC2)cc1
[21]
  IC50: 6 µM

## NCC(=O)c1ccc(Br)cc1
[21]
  IC50: 100 µM

## O=C(c1ccc(C(F)(F)F)cc1)C(Br)Br
[21]
  IC50: 5 µM

## O/N=C(\CBr)c1ccc(Br)cc1
[21]
  IC50: > 100 µM

## CCSCC(=O)c1ccc(Br)cc1
[21]
  IC50: > 10 µM

## CO/N=C(\CBr)c1ccc(Br)cc1
[21]
  IC50: 50 µM

## CC(=O)OCC(=O)c1ccc(Br)cc1
[21]
  IC50: > 100 µM

## Nc1c(Br)cc(C(=O)C(Br)Br)cc1Br
[21]
  IC50: 0.5 µM

## O=C(CO)c1ccc(Br)cc1
[21]
  IC50: > 100 µM

## O=C(CSCc1ccccc1)c1ccc(Br)cc1
[21]
  IC50: > 10 µM

## Cn1cc(C2=C(C(=O)CBr)C(=O)NC2=O)c2ccccc21
[23]
  Activity: Active
[20]
  inhibition: Active
[19]
  IC50: 0.005 µM

## N#Cc1cccc(C(=O)C(Br)Br)c1
[21]
  IC50: 1 µM

## CC(=O)C1=C(c2cn(C)c3ccccc23)C(=O)NC1=O
[23]
  Activity: Active
[19]
  IC50: 0.89 µM
[22]
  inhibition: Active

## N#Cc1ccc(C(=O)C(Br)Br)cc1
[21]
  IC50: 1.5 µM

## O=C(CBr)c1ccc(C(F)(F)F)cc1
[21]
  IC50: 5 µM

## [Cl-].[Li+]
[24]
  inhibition: Active
[25]
  inhibition: Active

## O=C(CBr)c1ccc(Br)cc1
[1]
  inhibition: < 10%
[2]
  inhibition: 38%
[3]
  inhibition: 16%
[4]
  inhibition: < 10%
[5]
  inhibition: < 10%
[6]
  inhibition: < 10%
[7]
  inhibition: < 10%
[8]
  inhibition: < 10%
[9]
  inhibition: < 10%
[10]
  inhibition: < 10%
[11]
  inhibition: < 10%
[12]
  inhibition: inactive
[13]
  inhibition: 29%
[14]
  inhibition: 18%
[15]
  inhibition: < 10%
[16]
  inhibition: < 10%
[17]
  inhibition: < 10%
[18]
  inhibition: < 10%
